# Test results from US20070232492A1, “Herbicidal Composition” (Ishihara Sangyo Kaisha, LTD., priority 2004, published 2007).
# Read-outs that look alike come from different tables or passages of the source.
# Experiments:
# [1] = test system: Japanese bulrush (Scirpus juncoides); assay: Growth inhibition of Japanese bulrush in paddy soil pots, application under submerged condition, visual rating and Colby expected value; assay type: in vivo
# From the text: (§1) When the herbicidal activity in a case where two active ingredients are combined, is larger than the simple sum of the respective herbicidal activities of the two active ingredients (the expected activity), it is called a synergistic effect. The activity expected by the combination of two active ingredients can be calculated as follows (Colby S. R., “Weed”, vol. 15, p. 20-22, 1967). E=p+q−(p×q÷100) where p: growth inhibition rate when treated with x (g/a) of herbicide X,
# (§2) q: growth inhibition rate when treated with y (g/a) of herbicide Y,
# (§3) E: growth inhibition rate expected when treated with x (g/a) of herbicide X and y (g/a) of herbicide Y.
# (§4) Namely, when the actual growth inhibition rate (observed value) is larger than the growth inhibition rate by the above calculation (expected value), the activity by the combination can be regarded as showing a synergistic effect.
# (§5) Growth inhibition rate (%)=0% (equivalent to the non-treated area) to 100% (complete kill)
# (§6) Paddy field soil was put into a 1/10,000 are pot, and seeds of Japanese bulrush (Scirpus juncoides) were sown and left to stand under an irrigated condition with a water depth of 3.5 cm. When Japanese bulrush reached 2.3 to 2.6 leaf stage, a wettable powder of compound A2 and granules of compound (B7.1) were, respectively, diluted with water and applied under submerged condition so that the active ingredients became the prescribed amounts, respectively. The state of growth was visually observed 10 days after application, and evaluation and calculation were carried out in the same manner as in the above Test Example 1.
# as §6, with “an emulsifiable concentrate” for “granules”, “(B3.1)” for “(B7.1)”
# (§7) Paddy field soil was put into a 1/10,000 are pot, and seeds of Japanese bulrush (Scirpus juncoides) were sown and left to stand under an irrigated condition with a water depth of 3.5 cm. When Japanese bulrush reached 2 leaf stage, wettable powders of compound A2, C2 and C4 and granules of compound C6 were, respectively, diluted with water and applied under submerged condition so that the active ingredients became the prescribed amounts, respectively.
# Paddy field soil was put into a 1/10,000 are pot, and seeds of Japanese bulrush (Scirpus juncoides) were sown and left to stand under an irrigated condition with a water depth of 3.5 cm. When Japanese bulrush reached 2 leaf stage, wettable powders of compound A2, C2 and C4 and granules of compound C6 were, respectively, diluted with water and applied under submerged condition so that the active ingredients became the prescribed amounts, respectively. The state of growth was visually observed 19 days after application, and the growth inhibition rate (%) evaluated in the same manner as in the above Test Example 1 (observed value) and the growth inhibition rate (%) calculated by the above-mentioned Colby method (expected value) are shown in Tables 36, 37 and 38.
# as §7, with “3” for “2”, “A2” for “A2, C2”, “and” for “and C4 and granules of”, “(D2.2)” for “C6”, “respectively. […]” for “respectively.”
# [2] = test system: barnyardgrass (Echinochloa oryzicola vasing); assay: Growth inhibition of barnyardgrass in paddy soil pots, application under submerged condition, visual rating (observed value) and Colby expected value; assay type: in vivo; conditions: for inhibition at 225 g/ha: read-out: Growth inhibition rate (%) Observed, 2.25 g/a
# From the text: as §1, §2, §3, §4
# Paddy field soil was put into a 1/10,000 are pot, and seeds of barnyardgrass (Echinochloa oryzicola vasing) were sown and left to stand under an irrigated condition with a water depth of 3.5 cm. When barnyardgrass reached 2.0 to 2.5 leaf stage, wettable powders of compound A2 and compound (B1.1) were, respectively, diluted with water and applied under submerged condition so that the active ingredients became the prescribed amounts, respectively. The state of growth was visually observed 21 days after application, and the growth inhibition rate (%) evaluated in accordance with the following evaluation standard (observed value) and the growth inhibition rate (%) calculated by the above-mentioned Colby method (expected value) are shown in Table 1.
# as §5
# (§8) Paddy field soil was put into a 1/10,000 are pot, and seeds of barnyardgrass (Echinochloa oryzicola vasing) were sown and left to stand under an irrigated condition with a water depth of 3.5 cm. When barnyardgrass reached 2.0 to 2.5 leaf stage, wettable powders of compound A2 and compound (B2.1) were, respectively, diluted with water and applied under submerged condition so that the active ingredients became the prescribed amounts, respectively. The state of growth was visually observed 21 days after application, and evaluation and calculation were carried out in the same manner as in the above Test Example 1.
# as §8, with “leaf stage, a wettable powder” for “leaf stage, wettable powders”, “a wettable powder of compound” for “stage, wettable powders of compound”, “A2 and an emulsifiable concentrate of compound (B3.1)” for “A2 and compound (B2.1)”, “of compound (B3.1) were, respectively,” for “and compound (B2.1) were, respectively,”
# as §8, with “(B4.1)” for “(B2.1)”
# Paddy field soil was put into a 1/10,000 are pot, and seeds of barnyardgrass (Echinochloa oryzicola vasing) were sown and left to stand under an irrigated condition with a water depth of 3.5 cm. […]
# [3] = 0.5 g/a, 2 leaf stage, 19 days after application, Test Example 33
# [4] = 1.0 g/a, 2 leaf stage, 19 days after application, Test Example 33
# [5] = 1.5 g/a, 2 leaf stage, 19 days after application, Test Example 34
# [6] = 2.0 g/a, 2 leaf stage, 19 days after application, Test Example 33
# [7] = 3.75 g/a, 2 leaf stage, 19 days after application, Test Example 34
# [8] = 10 g/a, 2 leaf stage, 19 days after application, Test Example 34
smiles,measurement,setting,value
"CCNc1nc(NCC)nc(SC)n1 [Compound (B5.1), simetryn]",inhibition at 450 g/ha,"[1]; Schoenoplectiella juncoides, soil, 696 h, read-out: Growth inhibition rate (%) Observed",25%
same,inhibition at 169 g/ha,"[2]; Echinochloa oryzicola, soil, 504 h, read-out: Growth inhibition rate (%) Observed, 1.69 g/a, 1.0 to 3.0 leaf stage, 21 days after application",3%
same,inhibition at 225 g/ha,"[2]; Echinochloa oryzicola, soil, 504 h, 2.0 to 2.5 leaf stage, 21 days after application",2%
same,inhibition at 338 g/ha,"[2]; Echinochloa oryzicola, soil, 504 h, read-out: Growth inhibition rate (%) Observed, 3.38 g/a, 1.0 to 3.0 leaf stage, 21 days after application",10%
same,inhibition at 450 g/ha,"[2]; Echinochloa oryzicola, soil, 504 h, read-out: Growth inhibition rate (%) Observed, 4.5 g/a, 2.0 to 2.5 leaf stage, 21 days after application",5%
same,inhibition at 225 g/ha,"[2]; Echinochloa oryzicola, soil, 696 h, 2.4 to 3.2 leaf stage, 29 days after application, Test Example 45",5%
"CC(C)N1C(=O)c2ccccc2NS1(=O)=O [Compound (B7.1), bentazone]",inhibition at 413 g/ha,"[1]; Schoenoplectiella juncoides, soil, 240 h, 4.13 g/a, 2.3 to 2.6 leaf stage, 10 days after application, read-out: Growth inhibition rate (%) Observed",10%
same,inhibition at 825 g/ha,"[1]; Schoenoplectiella juncoides, soil, 240 h, 8.25 g/a, 2.3 to 2.6 leaf stage, 10 days after application, read-out: Growth inhibition rate (%) Observed",10%
same,inhibition at 1650 g/ha,"[1]; Schoenoplectiella juncoides, soil, 240 h, 16.5 g/a, 2.3 to 2.6 leaf stage, 10 days after application, read-out: Growth inhibition rate (%) Observed",13%
same,inhibition at 750 g/ha,"[1]; Schoenoplectiella juncoides, soil, 504 h, 7.5 g/a, 3.8 to 4.2 leaf stage, 21 days after application, Test Example 61, read-out: Growth inhibition rate (%) Observed",98%
same,inhibition at 3300 g/ha,"[2]; Echinochloa oryzicola, soil, 504 h, 33 g/a, 3.0 to 3.3 leaf stage, 21 days after application, read-out: Growth inhibition rate (%) Observed",0%
same,inhibition at 4400 g/ha,"[2]; Echinochloa oryzicola, soil, 504 h, 44 g/a, 3.0 to 3.3 leaf stage, 21 days after application, read-out: Growth inhibition rate (%) Observed",0%
COc1cc(OC)nc(NC(=O)NS(=O)(=O)c2cccnc2C(O)C(C)F)n1 (stereo not shown) [Compound A1],Growth inhibition rate (%) Observed,"[1]; 0.11 g/a, 3.8 to 4.2 leaf stage, 21 days after application, Test Example 61",65%
same,Growth inhibition rate (%) Observed,"[2]; 0.083 g/a, 1.0 to 3.0 leaf stage, 21 days after application",83%
same,Growth inhibition rate (%) Observed,"[2]; 0.083 g/a, 2.8 to 3.2 leaf stage, 19 days after application, Test Examples 62-65",55%
same,Growth inhibition rate (%) Observed,"[2]; 0.083 g/a, 2.8 to 3.2 leaf stage, 21 days after application, Test Examples 39-43",57%
same,Growth inhibition rate (%) Observed,"[2]; 0.083 g/a, 2.8 to 3.4 leaf stage, 14 days after application, Test Examples 66-72",40%
same,Growth inhibition rate (%) Observed,"[2]; 0.083 g/a, 3.0 to 3.3 leaf stage, 21 days after application",43%
same,Growth inhibition rate (%) Observed,"[2]; 0.11 g/a, 1.0 to 3.0 leaf stage, 21 days after application",97%
same,Growth inhibition rate (%) Observed,"[2]; 0.11 g/a, 2.8 to 3.2 leaf stage, 19 days after application, Test Examples 62-65",93%
same,Growth inhibition rate (%) Observed,"[2]; 0.11 g/a, 2.8 to 3.2 leaf stage, 21 days after application, Test Examples 39-43",67%
same,Growth inhibition rate (%) Observed,"[2]; 0.11 g/a, 2.8 to 3.4 leaf stage, 14 days after application, Test Examples 66-72",53%
same,Growth inhibition rate (%) Observed,"[2]; 0.11 g/a, 3.0 to 3.3 leaf stage, 21 days after application",60%
same,Growth inhibition rate (%) Observed,"[2]; 0.165 g/a, 1.0 to 3.0 leaf stage, 21 days after application",98%
same,Growth inhibition rate (%) Observed,"[2]; 0.165 g/a, 2.8 to 3.2 leaf stage, 19 days after application, Test Examples 62-65",94%
same,Growth inhibition rate (%) Observed,"[2]; 0.165 g/a, 2.8 to 3.2 leaf stage, 21 days after application, Test Examples 39-43",78%
same,Growth inhibition rate (%) Observed,"[2]; 0.165 g/a, 2.8 to 3.4 leaf stage, 14 days after application, Test Examples 66-72",70%
same,Growth inhibition rate (%) Observed,"[2]; 0.165 g/a, 3.0 to 3.3 leaf stage, 21 days after application",75%
"CCOC(=O)COc1ccc(Cl)cc1C [Compound C2, MCP ethyl]",Growth inhibition rate (%) Observed,[1]; [3],13%
same,Growth inhibition rate (%) Observed,[1]; [4],23%
same,Growth inhibition rate (%) Observed,[1]; [5],20%
same,Growth inhibition rate (%) Observed,[1]; [6],35%
same,Growth inhibition rate (%) Observed,[1]; [7],45%
same,Growth inhibition rate (%) Observed,[1]; [8],68%
"CCOC(=O)COc1ccc(Cl)cc1Cl [Compound C6, 2,4-D ethyl]",Growth inhibition rate (%) Observed,[1]; [3],23%
same,Growth inhibition rate (%) Observed,[1]; [4],33%
same,Growth inhibition rate (%) Observed,[1]; [5],20%
same,Growth inhibition rate (%) Observed,[1]; [6],53%
same,Growth inhibition rate (%) Observed,[1]; [7],45%
same,Growth inhibition rate (%) Observed,[1]; [8],68%
